Paper PMC6701825, “Antiproliferative and Antimigratory Effects of a Novel YAP–TEAD Interaction Inhibitor Identified Using in Silico Molecular Docking” (Journal of Medicinal Chemistry, 2019)

Biological target: T1, recombinant TEAD1 (residues 194-411) (Homo sapiens, UniProt P28347)
T1 construct: TEAD1 protein (residues 194–411) was prepared by solution cleavage of the GST tag; GST (N, cleaved yes); made in house; host or cells: SoluBL21 Escherichia coli
Experiment: Saturation transfer difference (STD) NMR binding to TEAD1
Settings: 2 mM CPD3.1, approximately 20 μM TEAD1
Protocol: Figure 6 Saturation transfer difference (STD) NMR analysis of compound 3.1 binding to TEAD1. Saturation-Transfer Difference (STD) NMR spectra showing the binding of CPD3.1 to recombinant TEAD1. (A) reference 1H NMR spectra of a mixture of CPD3.1 and TEAD1. (B) and (C) show the STD spectra of CPD3.1 in the absence and presence of TEAD1. The asterisk indicates buffer components or impurities in the sample. The three spectra were recorded in PBS made up in 40% H2O/60% D2O acquired at 700 MHz. The concentration of CPD3.1 was 2 mM, whereas the final concentration of TEAD1 was approximately 20 μM.
Binding of compounds to human TEAD was performed using STD NMR analysis. Briefly, TEAD1 protein (residues 194–411) was prepared by solution cleavage of the GST tag from recombinant GST–TEAD1 (194–411). GST–TEAD1 protein was eluted from glutathione beads by 40 mM reduced glutathione. GST tag was removed by incubation with PreScission protease (Sigma-Aldrich) at 4 °C for 18 h. Glutathione was removed by dialysis against 1000 volumes of 1× PBS at 4 °C for 4 h. Free GST protein was removed by incubation with glutathione resin. All NMR spectroscopy experiments were performed on a Bruker Avance III HD 700 MHz spectrometer equipped with a 1.7 mm inverse triple-resonance microcryocoil probe. NMR samples were prepared in 40 μL with PBS pH 7.4 in 60% D2O (uncorrected for D2O). […]

T1 sequence (P28347 209-426): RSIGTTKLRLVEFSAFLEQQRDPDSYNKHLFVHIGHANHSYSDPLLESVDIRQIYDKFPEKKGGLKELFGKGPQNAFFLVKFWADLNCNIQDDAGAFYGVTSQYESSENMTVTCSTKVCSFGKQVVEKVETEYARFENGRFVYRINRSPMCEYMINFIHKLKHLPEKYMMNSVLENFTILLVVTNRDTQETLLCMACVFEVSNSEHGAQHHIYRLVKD

With Cc1ccc2c(c1)c1c3n2CCNC3CCC1 (stereo not shown) [CPD3.1] the “binding to purified recombinant TEAD protein (STD NMR)” value was “confirmed”.
